{"source": "patent US9173403B2", "about": "“Parasiticidal compositions comprising multiple active agents, methods and uses thereof” (MERIAL, INC., priority 2010, dated 2015)", "origin": "cited, not measured here", "details": "beagle dogs; spot-on administration; 14C radiolabeled drug", "data": [{"compound": "N#Cc1nn(-c2c(Cl)cc(C(F)(F)F)cc2Cl)c(N)c1[S+]([O-])C(F)(F)F", "note": "(stereo not shown) [fipronil, 5-amino-3-cyano-1-(2,6-dichloro-4-trifluoromethylphenyl)-4-trifluoromethylsulfinylpyrazole]", "values": [{"measurement": "time persistently detected in the whole skin after treatment", "value": "up to 56 days"}]}]}
